Data on 65 molecules can be found in paper doi:10.1101/2021.10.07.463234v2 (biorxiv, 2021).

Counter-ions that a name gives are not always drawn. Numbered stars: 1 amine (or outer) side, 2 acyl side, 3 side chain; on linkers, the order of the positions; unused ones are H or OH. Bridge positions count the residues as written; N and C are the ends. Square brackets hold non-standard residues; d marks the D form. Peptide text beside a SMILES is read from it. * marks the point of attachment. hTyr(3S-OH,4S-OH,3'-OSO3H) = N[C@H](C(=O)O)[C@H](O)[C@@H](O)c1ccc(O)c(OS(=O)(=O)O)c1; Orn(4R-OH,5R-OH) = O=C([C@H](C[C@@H](O)[C@@H](O)N[*:3])N[*:1])[*:2]; Pro(3S-OH,4S-Me) = C[C@H]1CN[C@H](C(=O)O)[C@H]1O; X1 = CCCCCOc1ccc(-c2cc(-c3ccc(C(=O)*)cc3)no2)cc1; Gln(3R-OH) = NC(=O)C[C@@H](O)[C@H](N)C(=O)O; Hyp = O=C(O)[C@@H]1C[C@@H](O)CN1

For the first assay, the target named is SARS-CoV-2 Mac1 (Severe acute respiratory syndrome coronavirus 2, UniProt P0DTD1). Briefly: biochemical. As to conditions: 100 µM; inhibitor.
The %inhibition is the share of the control response that was lost under treatment. As to `C[C@@H](O)[C@H]1C(=O)N2C(C(=O)O)=C(S[C@@H]3CN[C@H](C(=O)N(C)C)C3)[C@H](C)[C@H]12` [Meropenem Trihydrate], the “%inhibition” value stood at 21.42%. On the same count and under the same terms, then `C[C@@H](CN1CC(=O)NC(=O)C1)N1CC(=O)NC(=O)C1` [Dexrazoxane HCl (ICRF-187, ADR-529)], with 32.25%; and `CN1CCN(c2ccc3nc(-c4c(N)c5c(F)cccc5[nH]c4=O)[nH]c3c2)CC1` [Dovitinib (TKI258) Lactate], with 26.03%.

As to `Nc1ccc(S(=O)(=O)Nc2ncccn2)cc1` [Sulfadiazine], the “%inhibition” value is reported as 29.9%. On the same count and under the same terms, then `COc1ccc2[nH]c([S@@+]([O-])Cc3ncc(C)c(OC)c3C)nc2c1` [NEXIUM (esomeprazole magnesium)], with 21.09%; and `CCCC(CCC)C(=O)O` [Valproic acid sodium salt (Sodium valproate)], with 16.22%; and `CO/N=C(\C(=O)N[C@@H]1C(=O)N2C(C(=O)O)=C(CSC(=O)c3ccco3)CS[C@H]12)c1csc(N)n1` [Ceftiofur HCl], with 20.8%.

The assay is the same for the next values; noted with them: read-out: %inhibition.
Usually inhibition stands for the percentage by which the read-out fell short of the control. Consider `Cc1nccn1CC1CCc2c(c3ccccc3n2C)C1=O` (centres unmarked) [Ondansetron Hydrochloride Dihydrate], for which the inhibition at 100 µM is 0%. Still for that read-out and setting: then `Clc1ccc(C(Cn2ccnc2)OCc2c(Cl)cccc2Cl)c(Cl)c1` (centres unmarked) [Isoconazole nitrate], with 34.7%; and `O=c1c(-n2ccnn2)c[nH]n1-c1cc(N2CCOCC2)ncn1` [Molidustat (BAY 85-3934)], with 19.3%. On the same count and under the same terms, then `O=C1NCC2(CCN(CCc3ccccc3)CC2)O1` [Fenspiride HCl], with 26.5%; and `COc1c(C)c2c(c(O)c1C/C=C(\C)CCC(=O)OCCN1CCOCC1)C(=O)OC2` [Mycophenolate Mofetil], with 0%.

In the case of `Cc1ccc(C(=O)c2cc(O)c(O)c([N+](=O)[O-])c2)cc1` [Tolcapone], the inhibition at 100 µM stood at 0%. On the same count and under the same terms, then `Nc1ccc(S(=O)(=O)c2ccc(N)cc2)cc1` [Dapson], with 0%.

Turning to `O=C(c1ccc(OCCN2CCCCC2)cc1)c1c(-c2ccc(O)cc2)sc2cc(O)ccc12` [Raloxifene HCl], the inhibition at 100 µM stood at 63.1%. The same measure, in the same setting: then `Cc1cc(Nc2cc(N3CCN(C)CC3)nc(Sc3ccc(NC(=O)C4CC4)cc3)n2)n[nH]1` [Tozasertib (VX-680, MK-0457)], with 33.2%; and `NC(=O)C(c1ccccc1)(c1ccccc1)[C@@H]1CCN(CCc2ccc3c(c2)CCO3)C1` [Darifenacin HBr], with 0%. Same read-out and setting: then `OC[C@H]1O[C@@H](c2ccc(Cl)c(Cc3ccc(O[C@H]4CCOC4)cc3)c2)[C@H](O)[C@@H](O)[C@@H]1O` [Empagliflozin (BI 10773)], with 0%. On to `CN1C(=O)CCS(=O)(=O)C1c1ccc(Cl)cc1` (centres unmarked) [Chlormezanone], for which the inhibition at 100 µM was 20.4%. The same measure, in the same setting: then `Nc1nc(N)nc(NC2CC2)n1` [Cyromazine], with 20.5%; and `N=C(N)Nc1ccc(C(=O)Oc2ccc3cc(C(=N)N)ccc3c2)cc1` [Nafamostat Mesylate], with 0%.

In the case of `Cc1ccsc1C(=CCCN1CCC[C@@H](C(=O)O)C1)c1sccc1C` [Tiagabine], the inhibition at 100 µM is 9.64%. On the same count and under the same terms, then `CC(=O)OCC[N+](C)(C)C` [Acetylcholine iodide], with 0%; and `CC(C)C[C@H](N)C(=O)O` [L-Leucine], with 0%; and `Oc1ccc(Cl)c2cccnc12` [Cloxiquine], with 8.06%.

`C=CC(=O)Nc1cccc(Nc2nc(Nc3ccc(N4CCN(C(C)=O)CC4)cc3OC)ncc2C(F)(F)F)c1` [Rociletinib (CO-1686, AVL-301)]: the inhibition at 100 µM is 0%. In the case of `C[C@]12CC[C@@H]3c4ccc(O)cc4CC[C@H]3[C@@H]1CC[C@@H]2OC(=O)CCC1CCCC1` [Estradiol Cypionate], the inhibition at 100 µM came to 0%. As to `O=C(O)c1cc(=O)[nH]c(=O)[nH]1` [Orotic acid (6-Carboxyuracil)], the inhibition at 100 µM was 0%.

In the case of `C[C@@H](NCCCc1cccc(C(F)(F)F)c1)c1cccc2ccccc12` [Cinacalcet HCl], the inhibition at 100 µM is 4.38%. Still for that read-out and setting: then `CCCCCOc1ccc(-c2cc(-c3ccc(C(=O)N[C@H]4C[C@@H](O)[C@@H](O)NC(=O)[C@@H]5[C@@H](O)[C@@H](C)CN5C(=O)[C@H]([C@H](O)CC(N)=O)NC(=O)[C@H]([C@H](O)[C@@H](O)c5ccc(O)c(OS(=O)(=O)O)c5)NC(=O)[C@@H]5C[C@@H](O)CN5C(=O)[C@H]([C@@H](C)O)NC4=O)cc3)no2)cc1` [Micafungin Sodium] (X1-[Orn(4R-OH,5R-OH)]T[Hyp][hTyr(3S-OH,4S-OH,3'-OSO3H)][Gln(3R-OH)][Pro(3S-OH,4S-Me)]; lactam 1-C), with 0%. Same read-out and setting: then `Cc1c(OCC(F)(F)F)ccnc1C[S@@+]([O-])c1nc2ccccc2[nH]1` [Dexlansoprazole], with 13.9%; and `CO[C@H]1/C=C/O[C@@]2(C)Oc3c(C)c(O)c4c(O)c(c(/C=N/N5CCN(C6CCCC6)CC5)c(O)c4c3C2=O)NC(=O)/C(C)=C\C=C\[C@H](C)[C@H](O)[C@@H](C)[C@@H](O)[C@@H](C)[C@H](OC(C)=O)[C@@H]1C` [Rifapentine], with 26.7%; and `CC(C)OC(=O)CCC/C=C\C[C@@H]1[C@@H](/C=C/[C@@H](O)COc2cccc(C(F)(F)F)c2)[C@H](O)C[C@@H]1O` [Travoprost], with 0%.

As for `NC(=O)N1CCC(CC(=O)N2CCC([C@H]3c4ncc(Br)cc4CCc4cc(Cl)cc(Br)c43)CC2)CC1` [Lonafarnib], the inhibition at 100 µM is 29.6%. For `Cc1cn(-c2cc(NC(=O)c3ccc(C)c(Nc4nccc(-c5cnccn5)n4)c3)cc(C(F)(F)F)c2)cn1` [Radotinib], the inhibition at 100 µM is 1.77%. The same measure, in the same setting: then `C[C@@H]1C/C=C/C=C/C=C/C=C/[C@H](O[C@@H]2O[C@H](C)[C@@H](O)[C@H](N)[C@@H]2O)C[C@@H]2O[C@](O)(C[C@@H](O)C[C@H]3O[C@@H]3/C=C/C(=O)O1)C[C@H](O)[C@H]2C(=O)O` [Natamycin], with 0%; and `Cc1c(Nc2ncccc2C(=O)O)cccc1C(F)(F)F` [Flunixin Meglumin], with 0%. On the same count and under the same terms, then `COc1ccc2cccc(CCNC(C)=O)c2c1` [Agomelatine], with 36.5%. Still for that read-out and setting: then `C[C@H]1[C@@H](O)O[C@@H]2O[C@@]3(C)CC[C@H]4[C@H](C)CC[C@@H]1[C@@]24OO3` [Dihydroartemisinin (DHA)], with 0%.

As to `c1ccc2c(CC3=NCCN3)cccc2c1` [Naphazoline HCl], the inhibition at 100 µM amounted to 8.42%.

Regarding `CN1CCC[C@H]1c1cccnc1` [Nicotine Ditartrate], the inhibition at 100 µM was determined as 0%. Same read-out and setting: then `CC(C)=CCC/C(C)=C/CC/C(C)=C/CSc1ccccc1C(=O)O` [Salirasib], with 0%; and `CCN1CCN(c2cc3c(cc2F)c(=O)c(C(=O)O)cn3C2CC2)CC1` [Enrofloxacin], with 16.9%.

For the molecule `CN1[C@@H]2C[C@@H](OC(=O)[C@H](CO)c3ccccc3)C[C@H]1[C@@H]1O[C@@H]12` [Scopolamine HBr], the inhibition at 100 µM is 0%. Same read-out and setting: then `O=C(O)CCCCCCCC(=O)O` [Azelaic acid], with 0%; and `CN(C)C(=O)Oc1cccc([N+](C)(C)C)c1` [Neostigmine Bromide], with 0%; and `CCn1cc(C(=O)O)c(=O)c2ccc(C)nc21` [Nalidixic acid], with 0%. On the same count and under the same terms, then `CC(C)Cc1ccc(C(C)C(=O)O)cc1` (centres unmarked) [Ibuprofen], with 0%. Still for that read-out and setting: then `CN[C@H]1C[C@@H](N)[C@H](O)[C@@H](O[C@@H]2O[C@H](CO)[C@H](O)[C@@H]3OC4(O[C@H]23)O[C@H]([C@@H](N)CO)[C@H](O)[C@H](O)[C@H]4O)[C@@H]1O` (some centres unmarked) [Hygromycin B], with 0%; and `COC1=C(OC)C(=O)C(CCCCCCCCCCO)=C(C)C1=O` [Idebenone], with 7.11%; and `CC(O)C(=O)O` (centres unmarked) [Ammonium lactate], with 16.4%. With `C[C@]12CC[C@H](O)CC1=CC[C@@H]1[C@@H]2CC[C@]2(C)C(n3cnc4ccccc43)=CC[C@@H]12` [Galeterone], the inhibition at 100 µM was 31.2%.

As to `N=C1CCCN1Cc1[nH]c(=O)[nH]c(=O)c1Cl` [Tipiracil hydrochloride], the inhibition at 100 µM is 0%. The same measure, in the same setting: then `CC(C)NCC(O)COc1ccc(CC(N)=O)cc1` (centres unmarked) [Atenolol], with 0%; and `CC1(C)S[C@@H]2[C@H](NC(=O)[C@H](NC(=O)N3CCN(S(C)(=O)=O)C3=O)c3ccccc3)C(=O)N2[C@H]1C(=O)O` [Mezlocillin Sodium], with 6.75%; and `CCCNS(=O)(=O)Nc1ncnc(OCCOc2ncc(Br)cn2)c1-c1ccc(Br)cc1` [Macitentan], with 10%. Consider `CC(=O)NC(CC(C)C)C(=O)O` (centres unmarked) [Acetylleucine], for which the inhibition at 100 µM stood at 1.78%. On the same count and under the same terms, then `CCCCC[C@H](O)/C=C/[C@@H]1[C@@H](C/C=C\CCCC(=O)O)[C@@H](O)C[C@H]1O` [Dinoprost tromethamine], with 32.6%.

Regarding `C[C@@H](NCCc1ccc(O)cc1)[C@@H](O)c1ccc(O)cc1` (racemic) [Ritodrine HCl], the inhibition at 100 µM was determined as 33.2%.

For `Cc1cccc(C)c1N(CC(=O)Nc1ccc(-c2ncon2)cc1)C(=O)C1CCS(=O)(=O)CC1` [Amenamevir], the inhibition at 100 µM amounted to 8.46%. Same read-out and setting: then `CC(=O)c1cc2c(o1)C(=O)c1ccccc1C2=O` [Napabucasin], with 6.24%. On the same count and under the same terms, then `CCOC(=O)C1=C(C)NC(C)=C(C(=O)OC)C1c1cccc([N+](=O)[O-])c1` (centres unmarked) [Nitrendipine], with 4.31%; and `C/C(=C\c1csc(C)n1)[C@@H]1C[C@@H]2O[C@]2(C)CCC[C@H](C)[C@H](O)[C@@H](C)C(=O)C(C)(C)[C@@H](O)CC(=O)O1` [Patupilone (EPO906, Epothilone B)], with 19.2%.

With `CN(C)CCc1c[nH]c2ccc(C[C@H]3COC(=O)N3)cc12` [Zolmitriptan], the inhibition at 100 µM is 0%.

With `C[C@]12CC[C@@H]3c4ccc(O)cc4CC[C@H]3[C@@H]1C[C@@H](O)[C@@H]2O` [Estriol], the inhibition at 100 µM was determined as 0%.
